Experimental data: US7342027B2 (Yuhan Corporation, priority 2002, dated 2008)

Target: T1, Recombinant human cathepsin K (Homo sapiens, UniProt P43235)
T1 construct: made in house
T1 sequence (P43235 115-329): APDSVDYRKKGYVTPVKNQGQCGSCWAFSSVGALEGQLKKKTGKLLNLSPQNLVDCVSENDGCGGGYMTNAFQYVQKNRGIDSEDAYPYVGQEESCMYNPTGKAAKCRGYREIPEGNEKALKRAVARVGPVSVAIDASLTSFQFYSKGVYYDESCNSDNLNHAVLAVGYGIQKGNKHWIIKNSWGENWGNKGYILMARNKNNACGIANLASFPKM
Assay: Inhibition of cathepsin K activity (Z-Phe-Arg-AMC fluorescence assay)
Assay type: biochemical
Settings: 25 uM Z-Phe-Arg-AMC, pH 5.5, 1 hour at 37° C.
Description: Test 1: Inhibition of Cathepsin K Activity
Recombinant human cathepsin K was prepared in accordance with Biol, Pharm. Bull, 19(8), 1026-1031 (1996) and J. Biol. Chem. 271, 2126-2132 (1996). Stock solutions of 2.5 mM Z-Phe-Arg-AMC (BACHEM, 1-1160) and all inhibitors were prepared in dimethyl sulfoxide. In vitro assays for cathepsin K were conducted with 25 uM Z-Phe-Arg-AMC as a substrate at pH 5.5 in 100 mM Na acetate buffer containing 20 mM cysteine and 5 mM EDTA in the presence of 2% final concentration of DMSO. Reaction was initiated by the addition of enzyme to samples, which were then incubated for 1 hour at 37° C. The fluorescence was monitored at 460 nm (excitation wavelength 360 nm) using fluorescence plate reader.
The concentrations of the test compounds, which inhibit 50% of cathepsin K activity, are represented as IC50 in Table 1.

| SMILES | IC50 [nM] |
| --- | --- |
| CS(=O)(=O)c1ccccc1N1CCC(NC(=O)C2(NC(=O)c3ccc(N4CCCC4=O)cc3)CCCCC2)C(=O)C1 (stereo not shown) [Example 167, 4-[N-[1-[N-(4-(2-oxopyrrolidine)benzoyl)amino]cyclohexanecarbonyl]amino]-1-(2-methanesulfonylphenyl)piperidin-3-one] | 3.07 |
| O=C(NC1(C(=O)NC2CCN(c3ccc([N+](=O)[O-])cc3)CC2=O)CCCCC1)c1cc2ccccc2o1 (stereo not shown) [Example 16, 4-[N-[1-[N-(benzofuran-2-ylcarbonyl)amino]cyclohexanecarbonyl]amino]-1-(4-nitrophenyl)piperidin-3-one] | 10.8 |
| CS(=O)(=O)Nc1cc(F)ccc1N1CCC(NC(=O)C2(NC(=O)c3ccc(OCCN4CCOCC4)cc3)CCCCC2)C(=O)C1 (stereo not shown) [Example 169, 4-[N-[1-[N-(4-(2-morpholinethoxy)benzoyl)amino]cyclohexanecarbonyl]amino]-1-(4-fluoro-2-methanesulfonylaminophenyl)piperidin-3-one] | 0.58 |
| O=C(NC1(C(=O)NC2CCN(c3ccccc3[N+](=O)[O-])CC2=O)CCCCC1)c1ccc2ccccc2n1 (stereo not shown) [Example 138, 4-[N-[1-[N-(quinolin-2-ylcarbonyl)amino]cyclohexanecarbonyl]amino]-1-(2-nitrophenyl)piperidin-3-one] | 4.82 |
| O=C(NC1(C(=O)NC2CCN(c3ccc(F)cc3N3CCCC3=O)CC2=O)CCCCC1)c1ccc(OCCN2CCOCC2)cc1 (stereo not shown) [Example 170, 4-[N-[1-[N-(4-(2-morpholinethoxy)benzoyl)amino]cyclohexanecarbonyl]amino]-1-[4-fluoro-2-(pyrrolidin-2-one-1-yl)phenyl]piperidin-3-one] | 1.69 |
| CS(=O)(=O)c1ccccc1N1CCC(NC(=O)C2(NC(=O)c3ccc(-c4ccccc4)cc3)CCCCC2)C(=O)C1 (stereo not shown) [Example 153, 4-[N-[1-[N-(4-biphenylcarbonyl)amino]cyclohexanecarbonyl]amino]-1-(2-methanesulfonylphenyl)piperidin-3-one] | 0.36 |
| CS(=O)(=O)c1ccccc1N1CCC(NC(=O)C2(NC(=O)c3cc4cc(OCCN5CCCCC5)ccc4o3)CCCCC2)C(=O)C1 (stereo not shown) [Example 163, 4-[N-[1-[N-(5-(2-piperidinethoxy)benzofuran-2-ylcarbonyl)amino]cyclohexanecarbonyl]amino]-1-(2-methanesulfonylphenyl)piperidin-3-one] | 0.55 |
| CC1(C)CN(c2cc(F)ccc2N2CCC(NC(=O)C3(NC(=O)c4ccco4)CCCCC3)C(=O)C2)C1=O (stereo not shown) [Example 92, 4-[N-[1-[N-(furan-2-ylcarbonyl)amino]cyclohexanecarbonyl]amino]-1-[4-fluoro-2-(3,3-dimethylazetidin-2-one-1-yl)phenyl]piperidin-3-one] | 1.45 |

Next, values leading:

| IC50 [nM] | SMILES |
| --- | --- |
| 4.97 | CC1(C)CN(c2ccccc2N2CCC(NC(=O)C3(NC(=O)c4cc5ccccc5o4)CCCCC3)C(=O)C2)C1=O (stereo not shown) [Example 43, 4-[N-[1-[N-(benzofuran-2-ylcarbonyl)amino]cyclohexanecarbonyl]amino]-1-[2-(3,3-dimethylazetidin-2-one-1-yl)phenyl]piperidin-3-one] |
| 1.59 | CC[S+]([O-])c1ccccc1N1CCC(NC(=O)C2(NC(=O)c3cc4ccccc4o3)CCCCC2)C(=O)C1 (stereo not shown) [Example 69] |
| 19.9 | O=C(NC1(C(=O)NC2CCN(c3ccccc3N3CCOCC3)CC2=O)CCCCC1)c1cc2ccccc2o1 (stereo not shown) [Example 26, 4-[N-[1-[N-(benzofuran-2-ylcarbonyl)amino]cyclohexanecarbonyl]amino]-1-[2-(4-morpholino)phenyl]piperidin-3-one] |
| 8.07 | CCOc1ccccc1N1CCC(NC(=O)C2(NC(=O)c3cc4ccccc4o3)CCCCC2)C(=O)C1 (stereo not shown) [Example 27, 4-[N-[1-[N-(benzofuran-2-ylcarbonyl)amino]cyclohexanecarbonyl]amino]-1-(2-ethoxyphenyl)piperidin-3-one] |
| 1.2 | O=C(CCCCl)Nc1ccccc1N1CCC(NC(=O)C2(NC(=O)c3cc4ccccc4o3)CCCCC2)C(=O)C1 (stereo not shown) [Example 50, 4-[N-[1-[N-(benzofuran-2-ylcarbonyl)amino]cyclohexanecarbonyl]amino]-1-[2-[N-(4-chlorobutyryl)amino]phenyl]piperidin-3-one] |
